From article PMC9516332 (Frontiers in Oncology, 2022)

Legend:
Test in all cases: Kinase panel profiling at 1 µmol/L (MSA or IMAP), percentage inhibition
Type in all cases: biochemical
[1] = biological target: panel of 255 wild-type kinases (Homo sapiens, UniProt P54646); conditions: AMPKα2/β1/γ1 kinase assay; 1 µmol/L single concentration; read-out: %-inhibition AMPKα2/β1/γ1
[2] = biological target: panel of 255 wild-type kinases (Homo sapiens, UniProt Q05655); conditions: kinase PKCδ; 1 µmol/L single concentration; read-out: %-inhibition at 1 µmol/L, PKCδ
[3] = biological target: T1, panel of 255 wild-type kinases (Homo sapiens, UniProt Q02156); conditions: kinase PKCε; 1 µmol/L single concentration; read-out: %-inhibition at 1 µmol/L, PKCε
T1 sequence (Q02156 1-737): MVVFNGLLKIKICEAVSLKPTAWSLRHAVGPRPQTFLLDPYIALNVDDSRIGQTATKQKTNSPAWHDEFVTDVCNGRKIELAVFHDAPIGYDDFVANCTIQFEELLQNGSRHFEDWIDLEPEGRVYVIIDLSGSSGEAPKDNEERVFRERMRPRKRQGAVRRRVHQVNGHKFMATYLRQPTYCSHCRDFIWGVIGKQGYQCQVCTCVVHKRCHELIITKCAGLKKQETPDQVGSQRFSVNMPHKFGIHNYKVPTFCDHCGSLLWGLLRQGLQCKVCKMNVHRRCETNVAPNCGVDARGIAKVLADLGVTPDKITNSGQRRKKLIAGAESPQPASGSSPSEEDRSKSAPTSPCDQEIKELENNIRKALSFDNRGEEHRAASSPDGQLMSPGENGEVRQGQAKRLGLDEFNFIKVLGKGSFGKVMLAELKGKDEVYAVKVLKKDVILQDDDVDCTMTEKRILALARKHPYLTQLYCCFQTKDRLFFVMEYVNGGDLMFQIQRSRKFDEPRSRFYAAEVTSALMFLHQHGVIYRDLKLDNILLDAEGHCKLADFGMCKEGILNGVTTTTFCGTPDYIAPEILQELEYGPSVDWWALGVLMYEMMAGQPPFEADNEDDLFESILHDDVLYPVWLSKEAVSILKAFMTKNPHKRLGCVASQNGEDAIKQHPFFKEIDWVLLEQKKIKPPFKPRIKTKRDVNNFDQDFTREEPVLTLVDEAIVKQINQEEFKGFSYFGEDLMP

[4] = biological target: panel of 255 wild-type kinases (Homo sapiens, UniProt Q08345); conditions: kinase DDR1; 1 µmol/L single concentration; read-out: %-inhibition at 1 µmol/L, DDR1
[5] = biological target: panel of 255 wild-type kinases (Homo sapiens, UniProt P17612); conditions: kinase PKACα; 1 µmol/L single concentration; read-out: %-inhibition at 1 µmol/L, PKACα
[6] = biological target: panel of 255 wild-type kinases (Homo sapiens, UniProt Q7KZI7); conditions: MARK2; 1 µmol/L single concentration; read-out: %-inhibition, MARK2
[7] = biological target: T2, panel of 255 wild-type kinases (Homo sapiens, UniProt Q9BXA7); conditions: kinase TSSK1; 1 µmol/L single concentration; read-out: %-inhibition at 1 µmol/L, TSSK1
T2 sequence (Q9BXA7 1-367): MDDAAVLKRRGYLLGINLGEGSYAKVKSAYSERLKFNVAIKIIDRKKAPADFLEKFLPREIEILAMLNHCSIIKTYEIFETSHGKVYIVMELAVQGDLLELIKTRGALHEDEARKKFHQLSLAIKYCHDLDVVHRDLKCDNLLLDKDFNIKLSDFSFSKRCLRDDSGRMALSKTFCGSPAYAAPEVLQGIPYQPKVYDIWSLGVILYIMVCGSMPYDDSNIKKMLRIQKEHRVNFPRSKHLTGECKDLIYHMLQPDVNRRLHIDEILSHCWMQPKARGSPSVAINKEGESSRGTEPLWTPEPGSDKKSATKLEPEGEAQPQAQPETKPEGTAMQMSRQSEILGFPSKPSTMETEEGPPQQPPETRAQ

[8] = biological target: panel of 255 wild-type kinases (Homo sapiens, UniProt Q96RG2); conditions: PASK; 1 µmol/L single concentration; read-out: %-inhibition, PASK
[9] = biological target: panel of 255 wild-type kinases (Homo sapiens, UniProt Q9Y463); conditions: kinase DYRK1B; 1 µmol/L single concentration; read-out: %-inhibition at 1 µmol/L, DYRK1B
[10] = biological target: panel of 255 wild-type kinases (Homo sapiens, UniProt P11802); conditions: CDK4/CycD3 kinase assay; 1 µmol/L single concentration; read-out: %-inhibition CDK4/CycD3
[11] = biological target: panel of 255 wild-type kinases (Homo sapiens, UniProt O96013); conditions: PAK4; 1 µmol/L single concentration; read-out: %-inhibition, PAK4
[12] = biological target: panel of 255 wild-type kinases (Homo sapiens, UniProt Q86V86); conditions: kinase PIM3; 1 µmol/L single concentration; read-out: %-inhibition at 1 µmol/L, PIM3
[13] = biological target: panel of 255 wild-type kinases (Homo sapiens, UniProt Q15418); conditions: kinase RSK1; 1 µmol/L single concentration; read-out: %-inhibition at 1 µmol/L, RSK1
[14] = biological target: panel of 255 wild-type kinases (Homo sapiens, UniProt Q13882); conditions: BRK kinase assay; 1 µmol/L single concentration; read-out: %-inhibition BRK
[15] = biological target: panel of 255 wild-type kinases (Homo sapiens, UniProt P53779); conditions: kinase JNK3; 1 µmol/L single concentration; read-out: %-inhibition at 1 µmol/L, JNK3
[16] = biological target: panel of 255 wild-type kinases (Homo sapiens, UniProt P23443); conditions: p70S6K; 1 µmol/L single concentration; read-out: %-inhibition, p70S6K

Work on `C=CC(=O)N1CCC([C@@H]2CCNc3c(C(N)=O)c(-c4ccc(Oc5ccccc5)cc4)nn32)CC1` [zanubrutinib] yielded an inhibition at 1 µM [1] of -5%, an inhibition at 1 µM [2] of -6% and an inhibition at 1 µM [3] of 8%. It also gave an inhibition at 1 µM [4] of 3%, an inhibition at 1 µM [5] of -13% and an inhibition at 1 µM [6] of -21%. The inhibition at 1 µM [7] was 2.13%, the inhibition at 1 µM [8] was -2.55% and the inhibition at 1 µM [9] was 5.39%. It also gave an inhibition at 1 µM [10] of -1.7%, an inhibition at 1 µM [11] of -11% and an inhibition at 1 µM [12] of -8%. The inhibition at 1 µM [13] was -2.79%, the inhibition at 1 µM [14] was 99% and the inhibition at 1 µM [15] was -8%. It also gave an inhibition at 1 µM [16] of -3.21%.
